According to patent US20080299588A1, “Methods For Measuring Bone Formation” (The Curators of the University of Missouri A public …, priority 2007, published 2008):
Entries after “also recorded” stand apart in the source; their conditions may differ.

Key:
UMR-106 cells [1] = assay: Mineral deposition (hydroxyapatite) within BMF in UMR 106-01 cultures, Alizarin red S quantitation; format: cell-based, Rat
Protocol: (§1) Cell Culture. UMR 106-01 cells were maintained and cultured at 37° C. and 5% carbon dioxide. Cells were seeded at a density of 1.0×10^5 cells/cm^2 in Growth Medium (Eagle's MEM supplemented with Earle's salts, 1% non-essential amino acids, 10 mM, HEPES, pH 7.2, and 10% fetal bovine serum). After 24 hours (h), the medium was exchanged with Growth Medium containing 0.5% BSA. Sixty-four hours after plating, the culture medium was exchanged with Mineralization Media (Growth Medium containing either 0.1% BSA or 10% fetal bovine serum and 7 mM β-glycerol phosphate). Cultures were then incubated for an additional 24 hours, at the end of which (88 h), the cells were fixed in 70% ethanol and either subjected to MTT assay or extracted for protein. In some experiments, protease inhibitors, including serine protease inhibitor AEBSF (4-(2-aminoethyl)-benzenesulfonylfluoride HCl), were added to cultures at 64 h after plating in Mineralization Media. Alternatively, AEBSF was added at 44 h after plating; inhibitor was then removed and exchanged for Mineralization Media at 64 h and the amount of mineralization analyzed at 88 h.
Quantitation of Mineralization. […] Bound dye was quantitated by extraction for 2 h at 4° C. in cold 10 mM HCl in 70% ethanol. The initial extract was collected and combined with a second extract and then read at 520 nm in a spectrophotometer. A standard curve for Alizarin red S dye was constructed for each analysis and the amount of bound dye/culture well was determined. […] Combined extracts were read at 520 nm in a spectrophotometer and the amount of bound dye/culture well was determined based on a standard curve.
To investigate the nature of the protease activity responsible for BAG-75/BSP cleavage and the relationship of cleavage with mineralization, a variety of protease inhibitors (Table 1) were tested in the UMR model. Individual inhibitors were added to confluent cultures at 64 hours after plating and the amount of hydroxyapatite deposited within BMF was quantitated 24 hours later. […]

UMR-106 cells [2] = assay: MTT cell viability assay in UMR 106-01 cultures; format: cell-based, Rat
Protocol: as §1, with “In some experiments, protease inhibitors, including serine protease inhibitor AEBSF (4-(2-aminoethyl)-benzenesulfonylfluoride HCl), were added to cultures at 64 h after plating in Mineralization Media.” left out
MTT Assays Culture wells were washed with Eagle's MEM supplemented with Earle's salts and then incubated with a solution of 0.5 mg/ml MTT (3-(4,5-dimethylthiazol-2-yl)-2,5-diphenyl-2Htetrazolium bromide) in Eagle's MEM for 1-2 h at 37° C. Excess MTT solution was removed, the cells disrupted by mixing briefly with dimethylsulfoxide, and free, reduced dye was read at 490 or 540 nm in a spectrophotometer. […]

BAG-75 and BSP = assay: Uptake and proteolytic cleavage of BAG-75 and BSP in mineralizing UMR cultures (SDS-PAGE, staining, immunoblotting); format: cell-based, Rat
Protocol: Two Step Extraction of Cell Layer—2-Step Method. During the final 24 hour mineralization period, cells were grown in BSA-free, serum-free media conditions to reduce the amount of BSA in fractions used for 2-dimensional gel electrophoresis. Media was removed from each flask, heated at 95° C. for 5 minutes, dialyzed against 5% acetic acid, and lyophilized to dryness. Cell layers were first extracted without mixing for 2 h at 4° C. in 0.05 M Tris-acetate buffer (pH 7.5) containing 0.15 M NaCl, 0.05 M EDTA and 0.02% sodium azide; extracts were then inactivated at 95° C. for 5 minutes, dialyzed against 5% HAc, and lyophilized to dryness. The residual cell layer was next dislodged by scrapping and then extracted overnight at 4° C. by slow mixing with 0.1 M Trisacetate buffer (pH 7.5) containing 8 M urea, 2% (w/v) CHAPS and 0.02% sodium azide. Urea extracts were then homogenized and clarified by ultracentrifugation at 30,000 rpm for 1 h at 4° C. in an SW 50.1 rotor prior to use in 2-dimensional gel electrophoresis.
Western Blotting—Chemiluminescence Detection. […]
The effect of AEBSF on the protein distribution within mineralizing cultures was analyzed using cells grown until 64 hours, at which time they were fed with one of four different media conditions. […]

[3] = system: primary mouse calvarial cultures; assay: MTT assay in primary mouse calvarial cultures; format: cell-based; settings: 0.01 to 0.1 mM, scored on day 12
Protocol: Primary mouse calvaria were isolated from 3-5 day old mice and digested with trypsin/collagenase. Three sequential enzymatic digestions were pooled and spun down at 1500 rpm and the cells were resuspended in alpha-MEM containing 10% fetal bovine serum, 2 mM L-glutamine, 100 u/ml penicillin and 30 ug/ml gentamicin (Alpha-Growth Medium). Cells were plated directly at a density of 2-3×10^6 cells per T-75 cm2 flask and allowed to reach confluency (3-4 days). Confluent cultures were passaged by trypsinization and re-plating in 12- or 24-well culture dishes at a density of 20,000 cells per cm2. Cultures were subsequently re-fed at three-day intervals with Alpha-Growth Medium supplemented with 50 ug/ml ascorbic acid and 5 mM beta-glycerol phosphate. Beta-glycerol phosphate was omitted from some wells, which served as an unmineralized control. […] A second set was fixed on day 12 with 70% ethanol and processed for quantitative Alizarin red S staining as described for UMR cultures.
MTT Assays Culture wells were washed with Eagle's MEM supplemented with Earle's salts and then incubated with a solution of 0.5 mg/ml MTT (3-(4,5-dimethylthiazol-2-yl)-2,5-diphenyl-2Htetrazolium bromide) in Eagle's MEM for 1-2 h at 37° C. Excess MTT solution was removed, the cells disrupted by mixing briefly with dimethylsulfoxide, and free, reduced dye was read at 490 or 540 nm in a spectrophotometer.

[4] = system: procollagen C proteinase enhancer protein, 1,25-D3-MARRS, nascent polypeptide associated complex alpha chain; assay: 2-D SDS-PAGE and mass spectrometry of cell layer EDTA extracts, fragmentation of mineralization related proteins; format: cell-based, Rat; settings: +BGP versus +BGP with 0.04 mM AEBSF, serum-depleted
Protocol: Two Step Extraction of Cell Layer—2-Step Method. During the final 24 hour mineralization period, cells were grown in BSA-free, serum-free media conditions to reduce the amount of BSA in fractions used for 2-dimensional gel electrophoresis. Media was removed from each flask, heated at 95° C. for 5 minutes, dialyzed against 5% acetic acid, and lyophilized to dryness. Cell layers were first extracted without mixing for 2 h at 4° C. in 0.05 M Tris-acetate buffer (pH 7.5) containing 0.15 M NaCl, 0.05 M EDTA and 0.02% sodium azide; extracts were then inactivated at 95° C. for 5 minutes, dialyzed against 5% HAc, and lyophilized to dryness. […]
Mass Spectrometric Analyses. Protein bands were detected by staining with Coomassie blue G or with Sypro Ruby dye according to the manufacturer's instructions (Bio-Rad, Inc.). […] The data were analyzed using Mascot (Matrix Science, LTD), to find protein matches in the MSDB—20050227.fasta database. […]
AEBSF is a general serine protease inhibitor and the inhibition of mineralization by AEBSF could very well be due to the blockage of cleavage events of other necessary proteins. […] There were no major differences detected between the two growth conditions for either the urea extract or the media fraction. However, the differences detected between the two EDTA extracts were visually dramatic (FIG. 9). […]

## Cl.NCCc1ccc(S(=O)(=O)F)cc1 [AEBSF, 4-(2-aminoethyl)-benzenesulfonylfluoride HCl]
UMR-106 cells [1]; UMR cultures, 64-88 h after plating
  concentration capable of completely blocking mineral nucleation (as low as): 0.04 mM
UMR-106 cells [1]; UMR system, added at 64 hours after plating, optimal recommended dosage
  effect on mineral nucleation / mineralization in BMF: blocked mineral nucleation
UMR-106 cells [1]; assuming baseline mineral level of 150-170 nmoles/well, FIG. 4A
  difference in effectiveness, mineralization period (64-88 h) versus proliferation/differentiation period (44-64 h after plating): 10 fold
UMR-106 cells [2]; rat, UMR 106-01 cells, pH 7.2
  concentration below which no loss of cell viability was noted (MTT): below 1 mM
UMR-106 cells [2]; serum-sufficient or serum-depleted conditions
  concentration above which toxic (MTT): above 0.4 mM
BAG-75 and BSP; 0.1 mM AEBSF with 7 mM β-glycerol phosphate, 64-88 hours, HCl
  uptake of BAG-75 and BSP (75 kDa glycophosphoprotein band) from media by the cell layer: blocked; also recorded: blocks uptake
BAG-75 and BSP; UMR cultures with β-glycerol phosphate, two stage extraction, immunoblot
  proteolytic cleavage of BAG-75 and BSP to 45-50 kDa fragments: blocks uptake and cleavage
[3]
  change in viable cell number (MTT): little change in viable cell number
[4]
  cleavage of three additional proteins in EDTA extract: inhibited the cleavage
